ChEMBL document CHEMBL4482314, “Small molecule inhibitors of ghrelin O-acyltransferase” (2012)
Activity calls are given as the source filed them. The calls are words filed in the database; no cut-off is given here. Where a SMILES comes first, the peptide text is derived from it. [ ]: non-standard residue; d: D form. The star is where a group is joined. Octanoyl = CCCCCCCC(=O)*; Dap = NC[C@H](N)C(=O)O

Tests used:
[1] = molecular target: T1, Membrane-bound ghrelin O-acyltransferase MBOAT4 (Mus musculus) (UniProt P0C7A3); experiment: Inhibition of His10-tagged mouse GOAT expressed in baculovirus infected Sf9 cells assessed as reduction in specific acyl transfer from tritiated-octanoyl CoA to recombinant His-tagged pro-ghrelin at 100 uM
T1 sequence (whole entry): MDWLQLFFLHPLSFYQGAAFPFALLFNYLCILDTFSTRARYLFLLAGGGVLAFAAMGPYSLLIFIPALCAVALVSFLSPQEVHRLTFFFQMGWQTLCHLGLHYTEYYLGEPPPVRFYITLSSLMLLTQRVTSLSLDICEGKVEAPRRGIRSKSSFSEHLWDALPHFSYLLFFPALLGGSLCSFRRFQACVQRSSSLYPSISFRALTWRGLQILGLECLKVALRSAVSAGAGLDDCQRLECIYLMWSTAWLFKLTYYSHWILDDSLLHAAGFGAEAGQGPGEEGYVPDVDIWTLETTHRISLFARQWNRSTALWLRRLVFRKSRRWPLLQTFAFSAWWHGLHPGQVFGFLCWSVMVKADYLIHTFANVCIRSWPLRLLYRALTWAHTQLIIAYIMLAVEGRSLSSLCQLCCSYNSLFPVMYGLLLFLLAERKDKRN

[2] = molecular target: T1, Membrane-bound ghrelin O-acyltransferase MBOAT4 (Mus musculus); experiment: Inhibition of His10-tagged mouse GOAT expressed in baculovirus infected Sf9 cells assessed as reduction in specific acyl transfer from tritiated-octanoyl CoA to recombinant His-tagged pro-ghrelin
[3] = molecular target: T2, Membrane-bound ghrelin O-acyltransferase MBOAT4 (Homo sapiens) (UniProt Q96T53); experiment: Inhibition of GOAT (unknown origin) expressed in intact rat INS1 cells co-expressing pre-proghrelin incubated for 24 hrs; format: cell-based
T2 sequence (whole entry): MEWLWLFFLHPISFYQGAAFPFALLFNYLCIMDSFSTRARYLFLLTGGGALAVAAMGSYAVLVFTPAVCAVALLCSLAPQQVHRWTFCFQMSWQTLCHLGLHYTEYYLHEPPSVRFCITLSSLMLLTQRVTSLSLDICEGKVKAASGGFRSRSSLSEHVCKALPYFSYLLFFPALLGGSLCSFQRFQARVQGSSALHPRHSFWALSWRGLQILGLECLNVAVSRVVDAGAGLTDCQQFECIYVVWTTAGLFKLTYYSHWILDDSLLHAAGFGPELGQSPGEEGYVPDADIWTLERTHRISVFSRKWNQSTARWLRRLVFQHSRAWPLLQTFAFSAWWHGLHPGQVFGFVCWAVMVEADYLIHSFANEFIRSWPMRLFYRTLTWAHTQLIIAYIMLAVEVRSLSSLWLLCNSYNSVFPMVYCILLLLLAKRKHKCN

[4] = molecular target: T1, Membrane-bound ghrelin O-acyltransferase MBOAT4 (Mus musculus); experiment: Inhibition of His10-tagged mouse GOAT expressed in baculovirus infected Sf9 cells assessed as reduction in specific acyl transfer from tritiated-octanoyl CoA to recombinant His-tagged pro-ghrelin at 500 uM
[5] = molecular target: T1, Membrane-bound ghrelin O-acyltransferase MBOAT4 (Mus musculus); experiment: Inhibition of His10-tagged mouse GOAT expressed in baculovirus infected Sf9 cells assessed as reduction in specific acyl transfer from tritiated-octanoyl CoA to recombinant His-tagged pro-ghrelin at <500 uM

Row | SMILES | inhibition [2] | further results
1 | CCCCCCCC(O)CC[C@H](NC(=O)OCc1ccccc1)C(=O)N[C@H](COC)Cc1ccccc1 (some centres not stated) |  | inhibition [1]: Active
2 | CCCCCCCC(C)(O)/C=C/[C@H](NC(=O)C(C)(C)CO)C(=O)N[C@@H](Cc1ccccc1)C(=O)N[C@@H](CC(C)C)C(N)=O (some centres not stated) | Active | 
3 | CCCCCCCC(C)(O)/C=C/[C@H](NC(=O)OCc1ccccc1)C(=O)OC (some centres not stated) | Dose-dependent effect | inhibition [1]: Active; inhibition [3]: Active
4 | CCCCCCCC(C)(O)/C=C/[C@H](NC(=O)C(C)(C)CO)C(=O)OC (some centres not stated) | inactive | 
5 | CCCCCCCC(C)(O)/C=C/[C@H](NC(=O)OCc1ccccc1)C(=O)NC(C)C (some centres not stated) | Active | 
6 | CCCCCCCC(=O)CC[C@H](NC(=O)OCc1ccccc1)C(=O)OC |  | inhibition [1]: Active
7 | CCCCCCC[S+]([O-])CC[C@H](NC(=O)OCc1ccccc1)C(=O)OC (some centres not stated) | Dose-dependent effect | 
8 | CCC(C)(O)/C=C/[C@H](NC(=O)OCc1ccccc1)C(=O)OC (some centres not stated) | inactive | 
9 | CCCCCCCC(O)CC[C@H](NC(=O)C(C)(C)CO)C(=O)N[C@H](COC)Cc1ccccc1 (some centres not stated) |  | inhibition [4]: Active; inhibition [5]: Active
10 | CCCCCCCC(C)(O)/C=C/[C@@H](NC(=O)OCc1ccccc1)C(=O)OC (some centres not stated) | Active | inhibition [4]: Active
11 | CCCCCCCC(=O)NC[C@H](NC(=O)OCc1ccccc1)C(=O)OC | inactive | 
12 | CCCCCCCC(=O)NC[C@H](NC(=O)[C@H](CO)NC(=O)CN)C(=O)N[C@@H](Cc1ccccc1)C(=O)N[C@@H](CC(C)C)C(N)=O (H-GS[Dap](Octanoyl)FL-NH2) | Dose-dependent effect | 
13 | CCCCCCCC(O)/C=C/[C@H](NC(=O)OCc1ccccc1)C(=O)OC (some centres not stated) |  | inhibition [4]: Active; inhibition [5]: Active; inhibition [1]: Active
14 | CCCCCCCC(C)(O)/C=C/CNC(=O)OCc1ccccc1 (configuration not stated) | Active | 
15 | CCCCCCCC(C)(O)C/C=C(/NC(=O)OCc1ccccc1)C(=O)NC(C)C (configuration not stated) | Active | 
16 | CCCCCCCC(O)CC[C@H](NC(=O)C(C)(C)CO)C(=O)OC (some centres not stated) |  | inhibition [4]: Active
